Assay results: patent publication US10869474B2, “Fungicidal compositions” (UNIVERSITÄT BASEL, priority 2016, dated 2020)
≈ marks a conversion by molar mass, not a printed value. Like-named read-outs stand apart in the source and are kept apart here.

Assays:
Phytophthora infestans = test: microbe, parasite or virus in culture; format: cell-based; details: complete inhibition of germination, assessed after one day, Table 2 values are means of N independent experiments; for MIC: Phytophthora infestans, 24 h, read-out: Minimal inhibitory concentration (MIC100) against P. infestans, in vitro; for Minimal inhibitory concentration (MIC100) against P. infestans: in vitro
Plasmopara viticola [1] = test: In vitro bioassay in 96-well plates, minimal inhibitory concentration (MIC100); format: cell-based; details: for MIC: Plasmopara viticola, read-out: Minimal inhibitory concentration (MIC100) against P. viticola
Venturia inaequalis [2] = test: as above; format: cell-based; details: for MIC: Venturia inaequalis, 48 h, read-out: Minimal inhibitory concentration (MIC100) against V. inaequalis
Venturia inaequalis [3] = test: Plant-pathogen bioassay on apple seedlings under semi-controlled conditions; format: in vivo; details: apple cv. Jonagold seedlings, n = 6, Table 7
Plasmopara viticola [4] = test: Plant-pathogen bioassay on grapevine seedlings under semi-controlled conditions; format: in vivo; details: grapevine cv. Chasselas seedlings, n = 6, Table 5
[5] = in vitro, complete inhibition of zoospore activity, assessed after 2-3 h, Table 2 values are means of N independent experiments
[6] = in vitro, complete inhibition of germination, assessed after two days, Table 2 values are means of N independent experiments

SMILES	MIC (Phytophthora infestans)	MIC (Plasmopara viticola [1])	MIC (Venturia inaequalis [2])	Efficacy Mean ± SD (Venturia inaequalis [3]; CB 0.1 mg ml^−1)	Efficacy Mean ± SD (Venturia inaequalis [3]; CB 1 mg ml^−1)	Efficacy Mean ± SD (Venturia inaequalis [3]; CB 1 mg ml^−1, listed as coniferyl benzoate)	Minimal inhibitory concentration (MIC100) against P. infestans (Phytophthora infestans)	MIC (Plasmopara viticola [1]; [5])	Minimal inhibitory concentration (MIC100) against P. viticola (Plasmopara viticola [1]; [5])	Minimal inhibitory concentration (MIC100) against V. inaequalis (Venturia inaequalis [2]; [6])	Efficacy against P. viticola, mean ± SD (Plasmopara viticola [4]; pure compound 0.25 mg ml^−1)	Efficacy against P. viticola, mean ± SD (Plasmopara viticola [4]; pure compound 0.5 mg ml^−1)	Efficacy against P. viticola, mean ± SD (Plasmopara viticola [4]; pure compound 1 mg ml^−1)	MIC (Venturia inaequalis [2]; [6])
O=C(/C=C/c1ccccc1)OCc1ccccc1 [BC, benzyl cinnamate]	500 µg/mL (≈ 2100 µM)	8 µg/mL (≈ 33.6 µM)	> 500 µg/mL											
COc1cc(/C=C/COC(=O)c2ccccc2)ccc1O [CB, coniferyl benzoate]				4 ± 53%	69 ± 12%	70%	21 µg/mL (≈ 73.9 µM)	8 to 32 µg/mL (≈ 28.1 to 113 µM)	12 µg/mL (≈ 42.2 µM)	35 µg/mL (≈ 123 µM)	85 ± 14%	77 ± 50%	99 ± 1%	
O=C(/C=C/c1ccccc1)OC/C=C/c1ccc(O)cc1 [CC, p-coumaryl cinnamate]	16 to 64 µg/mL (≈ 57.1 to 228 µM)						25 µg/mL (≈ 89.2 µM)		38 µg/mL (≈ 136 µM)	32 µg/mL (≈ 114 µM)	80 ± 16%	95 ± 6%	98 ± 1%	16 to 64 µg/mL (≈ 57.1 to 228 µM)
